Reference: patent publication US20220117964A1, “COMBINATION OF FAK INHIBITOR AND BTK INHIBITOR FOR TREATING A DISEASE” (ASCENTAGE PHARMA (SUZHU) CO., LTD., priority 2019, published 2022)
Where “and” joins values, the source holds several entries; their conditions need not be identical. Equal values may be shown once.

Columns and labels:
KYSE-150 cells = assay: Cell migration (Transwell) assay; type: cell-based, human; conditions: 1 μM Compound 5, 1 μM Ibrutinib or both
Method: The culture medium was sucked into a chamber of Transwell (PC membrane, pore size 8.0 μm, Corning, N.Y., USA), and then the chamber was placed in a 24-well plate containing 750 μl of 50% FBS medium. After incubation for 24 to 30 hours, the chamber was taken out, the medium in the chamber was sucked out, and the redundant cells in the chamber were wiped off with a cotton swab. The chamber was placed in paraformaldehyde to perform fixation for 15 minutes, and staining was performed with 0.5% crystal violet at room temperature for 15 minutes. Cell migration activity was described as a relative number of the cells that exited the chamber.
(1) The experimental method was as described in the items (1), (2), (5) of Example 2. […] The changes in signaling pathway of related proteins were determined by Western blotting assay.

[1] = tested on: human KYSE-150 mouse xenograft tumor model; assay: Human KYSE-150 mouse xenograft tumor model, antitumor effect; type: in vivo, BALB/c Nude mice; conditions: for RTV on day 12 after administration (mean ± standard error): day 12 (last dose); for RTV on day 12 after administration (mean ± standard error) / T/C on day 12 after administration (%) / RTV on day 18 after administration (mean ± standard error) / T/C on day 18 after administration (%): Compound 5 100 mg/kg p.o., Ibrutinib 25 mg/kg i.p.; for RTV on day 12 after administration (mean ± standard error) / RTV on day 18 after administration (mean ± standard error): qd × 5d, withdrawal 2 days/week × 2 weeks; for Tumor state on day 12 after administration: CR: day 12, animals with complete regression of tumor / group; for Tumor state on day 12 after administration: PR: day 12, animals with partial regression of tumor / group; for Tumor state on day 12 after administration: SD: day 12, animals with stable disease / group; for RTV on day 18 after administration (mean ± standard error): day 18 (after drug withdrawal); for Tumor state on day 18 after administration: CR: day 18, animals with complete regression of tumor / group; for Tumor state on day 18 after administration: PR: day 18, animals with partial regression of tumor / group; for Tumor state on day 18 after administration: SD: day 18, animals with stable disease / group
Method: The animals used were BALB/c Nude mice, 4-6 weeks old, female. Animal body weight was 14-16±20% g. The experimental animals were provided by Beijing Weitonglihua Experimental Animal Technology Co., Ltd. (Vital River Laboratories, VRL, license number: SOCK (J) 2016-0011). Animal certificate number: 11400700325794.
Compound 5 was intragastrically administered at a dose of 100 mg/kg and a volume of 200 μl. The preparation for the administration was prepared every 3 days and stored at 4° C. when it has not been in use. The formulation and use of the preparation were carried out under sterile conditions. […] The preparation for the administration was prepared every 3 days and stored at 4° C. The formulation and use of the preparation were carried out under sterile conditions.
Forty immunodeficiency mice were subcutaneously injected with 5×10^6 KYSE-150 cells suspended in 100 μl PBS in the right armpit to establish a xenograft tumor model. […] When the tumor reached an appropriate size (50 to 100 mm^3), the animals were randomly assigned according to the tumor volume, in which the difference in tumor volume among groups should be less than 10% of the mean value, and at last 7 mice were assigned to each group, and the administration was star ted on the day of group assignment (i.e., d1).
A subcutaneous immunodeficient-mice xenograft tumor model of human tumor was established by cell inoculation method: tumor cells in logarithmic growth phase were collected, counted and resuspended in 1×PBS, and the concentration of cell suspension was adjusted to 5×10^7/mL. 1 mL syringe ([…]) was used to inoculate the tumor cells subcutaneously on the right back of immunodeficient mice, 5×10^6/0.1 mL/mouse. All animal experiments were performed strictly in accordance with the guidelines for Institutional Animal Care and Use Committee (IACUC) of Sun Yat-sen University and Suzhou Yasheng Pharmaceutical Co., Ltd. The calculation of related parameters referred to China NMPA “Technical Guidelines for Nonclinical Research of Cytotoxic Antitumor Drugs”.
Animal body weight and tumor size were measured twice per week during the experiment. The growth of tumor was periodically observed, and when the tumor grew to an average volume of 50 to 100 mm^3, the mice were randomly divided into groups for administration according to tumor size and body weight. The status and deaths of the animals were observed every day. The routine monitoring included the effects of tumor growth and drug administration on the normal behaviors of animals, specially included the activity of experimental animals, food and water consumption, weight gain or loss, eyes, hair, and other abnormal conditions. The deaths and clinical symptoms observed during the experiment were recorded in the raw data. The entire operation for administration, measurement of mouse weight and tumor volume was performed in a clean bench. According to the requirements of the experimental protocol, when the long diameter of tumor was greater than 20 mm, the experimental end point was reached and the mice were euthanized. Tumor tissues were collected, weighed and photographed for recording.
Tumor volume (TV) was calculated as: TV=a×b^2/2, wherein a and b represented the measured length and width of tumor, respectively. The relative tumor volume (RTV) was calculated as: RTV=Vt/V1, wherein V1 represented the tumor volume at the time of group assignment and administration, and Vt represented the tumor volume on a certain day after administration.

KYSE-510 = assay: CCK-8 cell viability assay; type: cell-based; conditions: Homo sapiens; KYSE-510 cells, CCK-8, 72 hours; read-out: IC50, proliferation inhibition
Method: (§1) Cell viability was measured using Cell Counting Kit-8 (Dojindo, Japan) according to the manufacturer's instructions. In short, cells were inoculated in a 96-well plate at 3000 to 4000 cells/well in the presence of a single drug or a combination of drugs for 72 hours. After 72 hours, CCK-8 reagent (10 μL/well) was added and incubated at 37° C. for 1-2 hours, and absorbance readings at 450 nm were obtained. The IC50 values were calculated by using GraphPad Prism version 6.0.0 (GraphPad Software, San Diego, Calif. USA) for Windows. […] The expression difference of FAK gene between normal esophageal tissue and esophageal cancer tissue was determined by analyzing the TCGA database source information in the GEPIA database (http://gepia.cancer-pku.cn/), and the correlation between the FAK gene and the EGFR gene in esophageal cancer was determined by analyzing the TCGA database source information using the Pearson test. The basic protein expression levels for the following proteins in 6 esophageal cancer cell lines (TE-10, TE-1, YES-2, KYSE-520, KYSE-510, KYSE-150) were detected by Western blot method: […]

TE-1 = assay: CCK-8 cell viability assay; type: cell-based; conditions: Homo sapiens; TE-1 cells, CCK-8, 72 hours; read-out: IC50, proliferation inhibition
Method: as §1

TE-10 = assay: CCK-8 cell viability assay; type: cell-based; conditions: Homo sapiens; TE-10 cells, CCK-8, 72 hours; read-out: IC50, proliferation inhibition
Method: as §1

Row | SMILES | cell migration (KYSE-150 cells) | RTV on day 12 after administration (mean ± standard error) [1] | Tumor state on day 12 after administration: CR [1] | Tumor state on day 12 after administration: PR [1] | Tumor state on day 12 after administration: SD [1] | T/C on day 12 after administration (%) [1] [%] | RTV on day 18 after administration (mean ± standard error) [1] | Tumor state on day 18 after administration: CR [1] | Tumor state on day 18 after administration: PR [1] | Tumor state on day 18 after administration: SD [1] | Tumor state on day 18 after administration: remission rate, % ([1]; day 18, remission including CR, PR and SD) | T/C on day 18 after administration (%) [1] [%] | IC50 (KYSE-510) [nM] | IC50 (TE-1) [nM] | IC50 (TE-10) [nM]
1 | C=CC(=O)N1CCC[C@@H](n2nc(-c3ccc(Oc4ccccc4)cc3)c3c(N)ncnc32)C1 [Ibrutinib] | cell migration in certain extent | 1.4 | 0/7 CR | 1/7 and 1/7 PR | 1/7 and 1/7 SD | 48.6 | 3.8 | 0/7 CR | no animal and 0/7 PR | no animal and 0/7 SD | (0%) | 70.2 | 4420 | 9880 | 3010
2 | Cc1cc(Nc2ncc(Cl)c(Nc3ccccc3S(=O)(=O)C(C)C)n2)c(OC(C)C)cc1C1=CCN(C2CCOCC2)CC1 [Compound 5, 5-chloro-N^2-(2-isopropoxy-5-methyl-4-(1-(tetrahydro-2H-pyran-4-yl)-1,2,3,6-tetrahydropyridin-4-yl)phenyl)-N^4-(2-(isopropylsulfonyl)phenyl)pyrimidine-2,4-diamine] | cell migration in certain extent | 1.4 | 0/7 CR | 1/7 and 1/7 PR | 1/7 and 1/7 SD | 49.8 | 3.0 | 0/7 CR | 1/7 and 1/7 PR | 0/7 SD |  | 55.8 | 2270 | 2210 | 2600
